Assay: recombinant UMI read abundance after kanamycin selection (control-corrected) (log10(CPM+1)); higher = more efficient recombination; extreme values may be limits of the assay; sequences stand for … in AGTGCAGAGAAAATCGGCCAGTTTTCTCTGCCTGCAGTCCGCATGCCGTGGGACCCCTTGGGTTCTAACCTGTTGCCTAGATTTATGCAGCGGACTGCCTTTCTCCCAAAGTGATAAACCGG…AGGTTGGTTTCACT; site = the 11-nt donor
Method in brief: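 Reported values are log10(CPM+1) from a pooled Escherichia coli screen of donor and donor-binding-loop pairs for the IS621 bridge recombinase. Selection used IPTG (0.07 mM) plus kanamycin, against unselected plating, each in two replicates. Recombinant UMIs were amplified across the donor–target junction, sequenced, converted to CPM, averaged over replicates and scaled by control-derived factors.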
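Note: IS621 bridge recombinase in Escherichia coli cells against a fixed T5 target plasmid.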

With “ATCCCTTCATGGACCGGTTTTCCCGGTAATCCGTATTTGTG (site ATCCCTTCTCA)” the “recombinant UMI read abundance (log10)” value was 0.0697.
For “ATCCGTCCATGGACCGGTTTTCCCGGTAATCCGTATTTGAC (site ATCCGTCCTGT)”, the “recombinant UMI read abundance (log10)” value was 0.00623.
With “ATCCGTCCATGGACCGGTTTTCCCGGTAATCCGTATTTGAT (site AACCGTCCTAT)” the “recombinant UMI read abundance (log10)” value was 0.00762.
For “ATCCGTCCATGGACCGGTTTTCCCGGTAATCCGTATTTGAT (site ACCCGTCCTAT)”, the “recombinant UMI read abundance (log10)” value was 0.0678.
For “ATCCGTCCATGGACCGGTTTTCCCGGTAATCCGTATTTGAT (site AGCCGTCCTAT)”, the “recombinant UMI read abundance (log10)” value was 0.00385.
For “ATCCGTCCATGGACCGGTTTTCCCGGTAATCCGTATTTGAT (site ATCCGTCCTAT)”, the “recombinant UMI read abundance (log10)” value was 0.0236.
For “ATCCTGACATGGACCGGTTTTCCCGGTAATCCGTATTTGAA (site ATCCTGACTTT)”, the “recombinant UMI read abundance (log10)” value was 0.419.
In the case of “ATCCTGGCATGGACCGGTTTTCCCGGTAATCCGTATTTGAA (site ATCCTGGCTTT)”, the “recombinant UMI read abundance (log10)” value is reported as 1.24.
With “ATCGAAGCATGGACCGGTTTTCCCGGTAATCCGTATTTGAG (site ATCAAAGCTCT)” the “recombinant UMI read abundance (log10)” value was 2.12.
In the case of “ATCGAAGCATGGACCGGTTTTCCCGGTAATCCGTATTTGAG (site ATCCAAGCTCT)”, the “recombinant UMI read abundance (log10)” value is reported as 0.355.
In the case of “ATCGAAGCATGGACCGGTTTTCCCGGTAATCCGTATTTGAG (site ATCGAAGCTCT)”, the “recombinant UMI read abundance (log10)” value is reported as 2.1.
For “ATCGAAGCATGGACCGGTTTTCCCGGTAATCCGTATTTGAG (site ATCTAAGCTCT)”, the “recombinant UMI read abundance (log10)” value was 0.58.
In the case of “ATCGACTCATGGACCGGTTTTCCCGGTAATCCGTATTTGAG (site ATCGACTCTCT)”, the “recombinant UMI read abundance (log10)” value is reported as 1.67.
With “ATCGAGTCATGGACCGGTTTTCCCGGTAATCCGTATTTGTA (site ATCGAGTCTTA)” the “recombinant UMI read abundance (log10)” value was 3.05.
In the case of “ATCGATTCATGGACCGGTTTTCCCGGTAATCCGTATTTGAG (site ATCGATTCTCT)”, the “recombinant UMI read abundance (log10)” value is reported as 2.41.
In the case of “ATCGGGACATGGACCGGTTTTCCCGGTAATCCGTATTTGTG (site ATCGGGACTCA)”, the “recombinant UMI read abundance (log10)” value is reported as 0.972.
With “ATCTAAGCATGGACCGGTTTTCCCGGTAATCCGTATTTGAG (site ATCAAAGCTCT)” the “recombinant UMI read abundance (log10)” value was 0.792.
With “ATCTAAGCATGGACCGGTTTTCCCGGTAATCCGTATTTGAG (site ATCCAAGCTCT)” the “recombinant UMI read abundance (log10)” value was 1.93.
For “ATCTAAGCATGGACCGGTTTTCCCGGTAATCCGTATTTGAG (site ATCGAAGCTCT)”, the “recombinant UMI read abundance (log10)” value was 0.367.
In the case of “ATCTAAGCATGGACCGGTTTTCCCGGTAATCCGTATTTGAG (site ATCTAAGCTCT)”, the “recombinant UMI read abundance (log10)” value is reported as 2.16.
For “ATCTATACATGGACCGGTTTTCCCGGTAATCCGTATTTGCC (site ATCTATACTGA)”, the “recombinant UMI read abundance (log10)” value was 1.23.
In the case of “ATCTATACATGGACCGGTTTTCCCGGTAATCCGTATTTGCC (site ATCTATACTGC)”, the “recombinant UMI read abundance (log10)” value is reported as 0.
In the case of “ATCTATACATGGACCGGTTTTCCCGGTAATCCGTATTTGCC (site ATCTATACTGG)”, the “recombinant UMI read abundance (log10)” value is reported as 2.12.
With “ATCTATACATGGACCGGTTTTCCCGGTAATCCGTATTTGCC (site ATCTATACTGT)” the “recombinant UMI read abundance (log10)” value was 0.46.
For “ATCTATACATGGACCGGTTTTCCCGGTAATCCGTATTTGTC (site ATCTATACTGA)”, the “recombinant UMI read abundance (log10)” value was 2.8.
In the case of “ATCTATACATGGACCGGTTTTCCCGGTAATCCGTATTTGTC (site ATCTATACTGC)”, the “recombinant UMI read abundance (log10)” value is reported as 0.
With “ATCTATACATGGACCGGTTTTCCCGGTAATCCGTATTTGTC (site ATCTATACTGG)” the “recombinant UMI read abundance (log10)” value was 0.
In the case of “ATCTATACATGGACCGGTTTTCCCGGTAATCCGTATTTGTC (site ATCTATACTGT)”, the “recombinant UMI read abundance (log10)” value is reported as 0.
For “ATCTGATCATGGACCGGTTTTCCCGGTAATCCGTATTTGCT (site ATCTGATCTAG)”, the “recombinant UMI read abundance (log10)” value was 2.71.
For “ATCTTGGCATGGACCGGTTTTCCCGGTAATCCGTATTTGCT (site ATCTTGGCTAG)”, the “recombinant UMI read abundance (log10)” value was 0.
For “ATGAACTCATGGACCGGTTTTCCCGGTAATCCGTATTTGGG (site ATGAACTCTCC)”, the “recombinant UMI read abundance (log10)” value was 1.08.
With “ATGAAGACATGGACCGGTTTTCCCGGTAATCCGTATTTGCT (site AGGAAGACTTG)” the “recombinant UMI read abundance (log10)” value was 0.
With “ATGAAGACATGGACCGGTTTTCCCGGTAATCCGTATTTGCT (site ATGAAGACTAG)” the “recombinant UMI read abundance (log10)” value was 2.82.
For “ATGAATACATGGACCGGTTTTCCCGGTAATCCGTATTTGCA (site AGGAAGACTTG)”, the “recombinant UMI read abundance (log10)” value was 0.
In the case of “ATGAATACATGGACCGGTTTTCCCGGTAATCCGTATTTGCA (site ATGAATACTTG)”, the “recombinant UMI read abundance (log10)” value is reported as 2.21.
With “ATGAATACATGGACCGGTTTTCCCGGTAATCCGTATTTGGC (site ATGAATACTGC)” the “recombinant UMI read abundance (log10)” value was 1.69.
In the case of “ATGAATTCATGGACCGGTTTTCCCGGTAATCCGTATTTGGT (site ATGAATTCTAC)”, the “recombinant UMI read abundance (log10)” value is reported as 2.57.
In the case of “ATGAGGACATGGACCGGTTTTCCCGGTAATCCGTATTTGGG (site ATGAGGACTCC)”, the “recombinant UMI read abundance (log10)” value is reported as 0.399.
In the case of “ATGATAACATGGACCGGTTTTCCCGGTAATCCGTATTTGCA (site ATGATAACTTG)”, the “recombinant UMI read abundance (log10)” value is reported as 2.08.
In the case of “ATGCAAGCATGGACCGGTTTTCCCGGTAATCCGTATTTGAG (site ATACAAGCTCT)”, the “recombinant UMI read abundance (log10)” value is reported as 2.24.
For “ATGCAAGCATGGACCGGTTTTCCCGGTAATCCGTATTTGAG (site ATCCAAGCTCT)”, the “recombinant UMI read abundance (log10)” value was 0.701.
For “ATGCAAGCATGGACCGGTTTTCCCGGTAATCCGTATTTGAG (site ATGCAAGCTCT)”, the “recombinant UMI read abundance (log10)” value was 2.26.
With “ATGCAAGCATGGACCGGTTTTCCCGGTAATCCGTATTTGAG (site ATTCAAGCTCT)” the “recombinant UMI read abundance (log10)” value was 0.614.
With “ATGCAAGCATGGACCGGTTTTCCCGGTAATCCGTATTTGGA (site ATGCAAGCTTC)” the “recombinant UMI read abundance (log10)” value was 1.86.
With “ATGCAGACATGGACCGGTTTTCCCGGTAATCCGTATTTGCA (site AGGAAGACTTG)” the “recombinant UMI read abundance (log10)” value was 0.
For “ATGCAGACATGGACCGGTTTTCCCGGTAATCCGTATTTGCA (site ATGCAGACTTG)”, the “recombinant UMI read abundance (log10)” value was 2.15.
With “ATGCATGCATGGACCGGTTTTCCCGGTAATCCGTATTTGGT (site ATGCATGCTAC)” the “recombinant UMI read abundance (log10)” value was 1.67.
With “ATGCATGCATGGACCGGTTTTCCCGGTAATCCGTATTTGGT (site CTGCATGCTAC)” the “recombinant UMI read abundance (log10)” value was 0.628.
For “ATGCATGCATGGACCGGTTTTCCCGGTAATCCGTATTTGGT (site GTGCATGCTAC)”, the “recombinant UMI read abundance (log10)” value was 0.323.
In the case of “ATGCATGCATGGACCGGTTTTCCCGGTAATCCGTATTTGGT (site TTGCATGCTAC)”, the “recombinant UMI read abundance (log10)” value is reported as 0.601.
For “ATGCTCGCATGGACCGGTTTTCCCGGTAATCCGTATTTGAA (site ATGCTCGCTTT)”, the “recombinant UMI read abundance (log10)” value was 1.82.
With “ATGGCACCATGGACCGGTTTTCCCGGTAATCCGTATTTGGG (site ATGGCACCTCC)” the “recombinant UMI read abundance (log10)” value was 0.00577.
For “ATGGGAGCATGGACCGGTTTTCCCGGTAATCCGTATTTGTA (site ATGGGAGCTTA)”, the “recombinant UMI read abundance (log10)” value was 2.2.
With “ATGGGCCCATGGACCGGTTTTCCCGGTAATCCGTATTTGAC (site ATGGGCCCTGT)” the “recombinant UMI read abundance (log10)” value was 0.523.
With “ATGGGTACATGGACCGGTTTTCCCGGTAATCCGTATTTGGC (site ATGGGTACTGC)” the “recombinant UMI read abundance (log10)” value was 2.89.
For “ATGGTAGCATGGACCGGTTTTCCCGGTAATCCGTATTTGGA (site ATGGTAGCTTC)”, the “recombinant UMI read abundance (log10)” value was 1.72.
For “ATGGTATCATGGACCGGTTTTCCCGGTAATCCGTATTTGAC (site ATGGTATCTGT)”, the “recombinant UMI read abundance (log10)” value was 3.67.
In the case of “ATGGTATCATGGACCGGTTTTCCCGGTAATCCGTATTTGAC (site CTAGTATCTGT)”, the “recombinant UMI read abundance (log10)” value is reported as 2.1.
For “ATGGTATCATGGACCGGTTTTCCCGGTAATCCGTATTTGCA (site ACAGTATCTTG)”, the “recombinant UMI read abundance (log10)” value was 1.69.
For “ATGGTATCATGGACCGGTTTTCCCGGTAATCCGTATTTGCA (site ATGGTATCTTG)”, the “recombinant UMI read abundance (log10)” value was 3.07.
For “ATGGTTTCATGGACCGGTTTTCCCGGTAATCCGTATTTGTA (site ATGGTTTCTTA)”, the “recombinant UMI read abundance (log10)” value was 2.68.
With “ATGTACGCATGGACCGGTTTTCCCGGTAATCCGTATTTGGC (site ATGTAAGCTGC)” the “recombinant UMI read abundance (log10)” value was 1.81.
With “ATGTACGCATGGACCGGTTTTCCCGGTAATCCGTATTTGGC (site ATGTACGCTGC)” the “recombinant UMI read abundance (log10)” value was 3.06.
In the case of “ATGTACGCATGGACCGGTTTTCCCGGTAATCCGTATTTGGC (site ATGTAGGCTGC)”, the “recombinant UMI read abundance (log10)” value is reported as 0.
With “ATGTACGCATGGACCGGTTTTCCCGGTAATCCGTATTTGGC (site ATGTATGCTGC)” the “recombinant UMI read abundance (log10)” value was 0.
With “ATGTACTCATGGACCGGTTTTCCCGGTAATCCGTATTTGCA (site ATGTACTCTTG)” the “recombinant UMI read abundance (log10)” value was 2.96.
With “ATGTAGCCATGGACCGGTTTTCCCGGTAATCCGTATTTGGC (site ATGTAGACTGC)” the “recombinant UMI read abundance (log10)” value was 0.
For “ATGTAGCCATGGACCGGTTTTCCCGGTAATCCGTATTTGGC (site ATGTAGCCTGC)”, the “recombinant UMI read abundance (log10)” value was 0.669.
For “ATGTAGCCATGGACCGGTTTTCCCGGTAATCCGTATTTGGC (site ATGTAGGCTGC)”, the “recombinant UMI read abundance (log10)” value was 0.
With “ATGTAGCCATGGACCGGTTTTCCCGGTAATCCGTATTTGGC (site ATGTAGTCTGC)” the “recombinant UMI read abundance (log10)” value was 1.33.
For “ATGTAGGCATGGACCGGTTTTCCCGGTAATCCGTATTTGGC (site AAGTAGGCTGC)”, the “recombinant UMI read abundance (log10)” value was 1.22.
In the case of “ATGTAGGCATGGACCGGTTTTCCCGGTAATCCGTATTTGGC (site ACGTAGGCTGC)”, the “recombinant UMI read abundance (log10)” value is reported as 1.74.
For “ATGTAGGCATGGACCGGTTTTCCCGGTAATCCGTATTTGGC (site AGGTAGGCTGC)”, the “recombinant UMI read abundance (log10)” value was 0.332.
For “ATGTAGGCATGGACCGGTTTTCCCGGTAATCCGTATTTGGC (site ATATAGGCTGC)”, the “recombinant UMI read abundance (log10)” value was 2.8.
For “ATGTAGGCATGGACCGGTTTTCCCGGTAATCCGTATTTGGC (site ATCTAGGCTGC)”, the “recombinant UMI read abundance (log10)” value was 0.844.
